Results taken from US20240325330A1, “NEW METHOD TO TREAT ACIDOSIS RELATED DISEASES WITH ACETOACETATE” (INSTITUT NATIONAL DE LA SANTÉ ET DE LA RECHERCHE MÉDICALE, priority 2021, published 2024).

Columns and labels:
[1] = system: day 3 LA-Mφ (human macrophages under lactic acidosis); experiment: Survival of LA-Mφ with autophagy inhibitors; format: cell-based; details: added to day 3 LA-Mφ; data not shown
Experimental: (§1) Peripheral blood mononuclear cells (PBMC) were obtained from healthy human volunteers (Blood collection center, Angers, France; agreement ANG-2017-01) by standard density-gradient centrifugation on lymphocyte separation medium (Eurobio, Courtaboeuf, France). CD14+ monocytes were then isolated by positive magnetic cell-sorting (Miltenyi Biotec, Bergisch Gladbach, Germany). Monocytes (1×10^6 cells/mL) were cultured in complete medium (CM) consisting of RPMI 1640 (Lonza, Verviers, Belgium) supplemented with 10% fetal calf serum (FCS) (Eurobio), 2 mM L-glutamine, 1 mM sodium pyruvate, 0.1 mM non-essential amino acids, 10 mM HEPES, 100 U/mL penicillin and 100 μg/mL streptomycin (all from Lonza) in the presence of 50 ng/mL GM-CSF (R&D Systems, Minneapolis, MN).
(§2) Experiments were performed in the presence of 10 mM lactic acid (Sigma-Aldrich, St Louis, MO) resulting in a pHe of 6.5 to generate LA-Mφ (lactic acidosis conditioning), 12.35 mM HCl to reach a final pHe of 6.5 and to generate HCl-Mφ(acidosis conditioning), 10 mM sodium lactate (Sigma-Aldrich) to generate lactate-Mφ (lactosis conditioning, pH 7.3), in the absence or presence of 5 mM lithium acetoacetate (AcAc) (Sigma-Aldrich, St Louis, MO).

[2] = system: Mφ (human monocytes cultured with GM-CSF); experiment: Toxicity of lactic acid for macrophages; format: cell-based; details: pH=6.5; data not shown
Experimental: as §1, §2

| SMILES | survival of LA-Mφ [1] | maximum non-toxic concentration for Mφ [2] [mM] |
| --- | --- | --- |
| CO/C1=C\C(C)=C\[C@@H](C)[C@@H](O)[C@@H](C)C/C(C)=C/C=C/[C@H](OC)[C@@H]([C@@H](C)[C@@H](O)[C@H](C)[C@@]2(O)C[C@@H](O)[C@H](C)[C@@H](C(C)C)O2)OC1=O [BafA1, bafilomycin A1] | significantly decreased their survival |  |
| CC(O)C(=O)O (stereo not drawn) [LA, lactic acid] |  | 10 |
| CC[C@@H](C(=O)[C@@H](C)[C@@H](O)[C@H](C)[C@@H]1O[C@@H]([C@@H](CC)C(=O)O)CC[C@@H]1C)[C@H]1O[C@]2(C=C[C@@H](O)[C@]3(CC[C@@](C)([C@H]4CC[C@](O)(CC)[C@H](C)O4)O3)O2)[C@H](C)C[C@@H]1C [salinomycin] | significantly decreased their survival |  |
